Results published in USRE49735E1 (BRISTOL-MYERS SQUIBB COMPANY, priority 2010, dated 2023).
Where “and” joins values, the source holds several entries; their conditions need not be identical. Identical values can stand only once.

Molecular target: human mGluR5A (Homo sapiens, UniProt P41594)
Test: mGluR5 FLIPR Assay
Format: cell-based
Settings: positive modulator activity; HEK293 (ZF) cells with human mGluR5A and rat GLAST; Ca++ response to ~EC10 glutamate

Sequence of human mGluR5A (P41594 21-1180 isoform P41594-2): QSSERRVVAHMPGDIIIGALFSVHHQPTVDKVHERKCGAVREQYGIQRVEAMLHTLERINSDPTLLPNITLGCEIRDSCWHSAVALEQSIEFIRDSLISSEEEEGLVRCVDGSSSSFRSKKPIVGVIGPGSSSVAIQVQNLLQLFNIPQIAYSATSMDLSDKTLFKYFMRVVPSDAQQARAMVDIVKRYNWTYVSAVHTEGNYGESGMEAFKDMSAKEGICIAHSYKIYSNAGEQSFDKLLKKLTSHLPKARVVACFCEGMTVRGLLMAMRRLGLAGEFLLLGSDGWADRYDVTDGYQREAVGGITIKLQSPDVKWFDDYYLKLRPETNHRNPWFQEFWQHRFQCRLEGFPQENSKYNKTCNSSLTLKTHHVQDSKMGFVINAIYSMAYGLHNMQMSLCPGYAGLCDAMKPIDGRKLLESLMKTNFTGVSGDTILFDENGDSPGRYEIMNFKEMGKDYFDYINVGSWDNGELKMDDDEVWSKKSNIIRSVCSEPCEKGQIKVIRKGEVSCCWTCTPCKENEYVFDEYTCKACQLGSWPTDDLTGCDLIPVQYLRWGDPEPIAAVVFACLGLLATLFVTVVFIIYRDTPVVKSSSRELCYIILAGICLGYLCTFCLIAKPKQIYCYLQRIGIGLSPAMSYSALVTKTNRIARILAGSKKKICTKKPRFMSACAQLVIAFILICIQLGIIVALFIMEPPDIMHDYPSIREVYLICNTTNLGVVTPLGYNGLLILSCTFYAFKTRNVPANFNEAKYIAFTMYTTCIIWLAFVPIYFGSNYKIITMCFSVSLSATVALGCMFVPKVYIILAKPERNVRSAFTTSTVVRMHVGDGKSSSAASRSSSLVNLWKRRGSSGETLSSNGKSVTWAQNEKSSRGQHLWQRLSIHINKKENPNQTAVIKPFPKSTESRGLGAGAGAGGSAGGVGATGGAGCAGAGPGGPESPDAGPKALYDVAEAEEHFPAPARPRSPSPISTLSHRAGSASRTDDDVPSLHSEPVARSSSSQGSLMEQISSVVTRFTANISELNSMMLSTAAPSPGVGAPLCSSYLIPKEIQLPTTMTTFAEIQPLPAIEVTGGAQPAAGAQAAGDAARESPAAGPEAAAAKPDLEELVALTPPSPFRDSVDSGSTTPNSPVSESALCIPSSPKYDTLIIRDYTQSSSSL

`O=C1N[C@@H](c2cccc(C#Cc3ccccc3)c2)[C@H](c2ccccc2F)O1` [Example 110, (4S,5S)-5-(2-fluorophenyl)-4-(3-(phenylethynyl)phenyl)oxazolidin-2-one] and `O=C1N[C@@H](c2cccc(C#Cc3ccccc3)n2)[C@H](c2ccccc2F)O1` (single isomer, unassigned) [Example 308] cannot be ordered by EC50: greater than 1000 nM for the first, greater than 1000 nM for the second.

Compared with `COc1cccc([C@H]2OC(=O)N[C@@H]2c2cccc(C#Cc3ccnc(C#N)c3)c2)c1` [Example 56, 4-((3-((4R,5R)-5-(3-Methoxyphenyl)-2-oxooxazolidin-4-yl)phenyl)ethynyl)nicolinonitrile], `COc1cccc([C@H]2OC(=O)N[C@@H]2c2cccc(C#Cc3cc(F)ccn3)c2)c1` [Example 193] is lower in EC50: greater than 1000 nM for the first, less than 100 nM for the second. The second is the more potent here.

`COc1cccc([C@H]2OC(=O)N[C@@H]2c2cccc(C#Cc3ncccc3F)c2)c1` [Example 196] and `COc1cccc([C@H]2OC(=O)N[C@@H]2c2cccc(C#Cc3cccnc3F)c2)c1` [Example 79, (4R,5R)-4-(3-((2-Fluoropyridin-3-yl)ethynyl)phenyl)-5-(3-methoxyphenyl)oxazolidin-2-one] cannot be ordered by EC50: less than 100 nM for the first, less than 100 nM for the second.

First: COc1cccc([C@H]2OC(=O)N[C@@H]2c2cccc(C#Cc3csc(C)n3)c2)c1 [Example 52, (4R,5R)-5-(3-Methoxyphenyl)-4-(3-((2-methylthiazol-4-yl)ethnyl)phenyl)oxazolidin-2-one]
Second: COc1cccc([C@H]2OC(=O)N[C@@H]2c2cccc(C#Cc3ccc(C)nc3)c2)c1 [Example 83, (4R,5R)-5-(3-Methoxyphenyl)-4-(3-((6-methylpyridin-3-yl)ethynyl)phenyl)oxazolidin-2-one]
The EC50 of the first is higher: greater than 30000 nM for the first, 100 to 1000 nM for the second. The second is the more potent here.

Compared with `N#Cc1cccc(C#Cc2cncc([C@H]3NC(=O)O[C@@H]3c3cc(F)ccc3F)c2)c1` [Example 188], `O=C1N[C@H](c2cncc(C#Cc3cccc(F)c3)c2)[C@@H](c2cc(F)ccc2F)O1` [Example 283] is lower in EC50: greater than 1000 nM for the first, less than 100 nM for the second. The second is the more potent here.

`O=C1N[C@H](c2cccc(C#Cc3cccc(F)c3)n2)[C@@H](c2ccc(F)cc2F)O1` (single isomer, unassigned) [Example 311] and `O=C1N[C@H](c2cc(C#Cc3ccccc3)cnc2F)[C@@H](c2cc(F)ccc2F)O1` [Example 302] cannot be ordered by EC50: less than 100 nM for the first, less than 100 nM for the second.

`O=C1N[C@H](c2cncc(C#Cc3ccccc3)c2)[C@@H](c2cccc(Cl)c2)O1` (single isomer, unassigned) [Example 362] and `O=C1N[C@@H](c2cncc(C#Cc3ccccc3)c2)[C@H](c2ccccc2)O1` (single isomer, unassigned) [Example 39] cannot be ordered by EC50: less than 100 nM for the first, less than 100 nM for the second.

`Cc1noc([C@H]2OC(=O)N[C@@H]2c2cccc(C#Cc3ccccc3)c2)n1` [Example 166] and `O=C1N[C@@H](c2cccc(C#Cc3ccccc3)c2)[C@H](c2cnccn2)O1` [Example 245] cannot be ordered by EC50: greater than 1000 nM for the first, greater than 1000 nM for the second.

Going from `COc1cccc([C@H]2OC(=O)N[C@@H]2c2cccc(C#Cc3cccc(C#N)c3)c2)c1` [Example 55] to `COc1cccc([C@@H]2OC(=O)N[C@H]2c2cccc(C#Cc3cccc(F)c3)c2)c1` [Example 134, (4S,5S)-4-(3-((3-fluorophenyl)ethynyl)phenyl)-5-(3-methoxyphenyl)oxazolidin-2-one], the EC50 rises from less than 100 nM to greater than 1000 nM. The first is the more potent here.

`COc1cccc([C@H]2OC(=O)N[C@@H]2c2cccc(C#Cc3cccc(C)c3)c2)c1` [Example 54, (4R,5R)-5-(3-Methoxyphenyl)-4-(3-(m-tolylethnyl)phenyl)oxazolidin-2-one] and `COc1cccc([C@H]2OC(=O)N[C@@H]2c2cccc(C#Cc3cccc(OC(F)(F)F)c3)c2)c1` [Example 269] cannot be ordered by EC50: greater than 1000 nM for the first, greater than 1000 nM for the second.

`Cc1ccc([C@H]2OC(=O)N[C@@H]2c2cccc(C#Cc3ccccc3)c2)cc1C` [Example 101, (4R,5R)-5-(3,4-dimethylphenyl)-4-(3-(phenylethynyl)phenyl)oxazolidin-2-one] and `O=C1N[C@@H](c2cccc(C#Cc3ccccc3)c2)[C@H](c2cccnc2)O1` (relative stereo) [Example 116, Trans-4-(3-(phenylethynyl)phenyl)-5-(pyridin-3-yl)oxazolidin-2-one] cannot be ordered by EC50: less than 100 nM for the first, less than 100 nM for the second.

First: O=C1N[C@@H](c2cc(C#Cc3ccccc3)cnc2F)[C@H](c2ccccc2F)O1 (single isomer, unassigned) [Example 374]
Second: O=C1N[C@H](c2cc(C#Cc3ccccc3)cnc2F)[C@@H](c2ccccc2F)O1 (single isomer, unassigned) [Example 375]
The EC50 of the first is higher: greater than 1000 nM for the first, less than 100 nM for the second. The second is the more potent here.

First: COc1cccc([C@H]2OC(=O)N[C@@H]2c2cccc(C#Cc3ccc(C#N)cc3)c2)c1 [Example 264]
Second: COc1cccc([C@H]2OC(=O)N[C@@H]2c2cccc(C#Cc3ccc(C(F)(F)F)cc3)c2)c1 [Example 119, (4R,5R)-5-(3-methoxyphenyl)-4-(3-((4-(trifluoromethyl)phenyl)ethynyl)phenyl)oxazolidin-2-one]
The EC50 of the first is lower: 100 to 1000 nM for the first, greater than 1000 nM for the second.

`O=C1N[C@H](c2cncc(C#Cc3cnccn3)c2)[C@@H](c2cccc(F)c2)O1` [Example 397, (4R,5R)-5-(3-Fluorophenyl)-4-(5-(pyrazin-2-ylethynyl)pyridin-3-yl)oxazolidin-2-one] and `O=C1N[C@H](c2cncc(C#Cc3cnccn3)c2)[C@@H](c2cc(F)ccc2F)O1` [Example 396, (4R,5R)-5-(2,5-difluorophenyl)-4-(5-(pyrazin-2-ylethynyl)pyridin-3-yl)oxazolidin-2-one] cannot be ordered by EC50: less than 100 nM for the first, less than 100 nM for the second.

`O=C1N[C@@H](c2cncc(C#Cc3ccccc3)c2)[C@@H](c2ccnnc2)O1` (single isomer, unassigned) [Example 323] and `O=C1N[C@H](c2cncc(C#Cc3ccccc3)c2)[C@@H](c2ncco2)O1` [Example 339, (4R,5S)-5-(oxazol-2-yl)-4-(5-(phenylethynyl)pyridin-3-yl)oxazolidin-2-one] cannot be ordered by EC50: greater than 1000 nM for the first, greater than 1000 nM for the second.

`O=C1N[C@H](c2cc(C#Cc3ccccc3)ccn2)[C@@H](c2ccccc2)O1` (single isomer, unassigned) [Example 18] and `O=C1N[C@@H](c2cccc(C#Cc3ccccc3F)n2)[C@H](c2ccccc2)O1` (single isomer, unassigned) [Example 15] cannot be ordered by EC50: greater than 30000 nM for the first, greater than 1000 nM for the second.

Compared with `O=C1N[C@H](c2cc(C#Cc3ccnc(F)c3)cnc2F)[C@@H](c2cccc(F)c2)O1` [Example 141, (4R,5R)-4-(2-Fluoro-5-((2-fluoropyridin-4-yl)ethynyl)pyridin-3-yl)-5-(3-fluorophenyl)oxazolidin-2-one], `O=C1N[C@H](c2cc(C#Cc3ccccn3)cnc2F)[C@@H](c2cccc(F)c2)O1` [Example 148, (4R,5R)-4-(2-Fluoro-5-(pyridin-2-ylethynyl)pyridin-3-yl)-5-(3-fluorophenyl)oxazolidin-2-one] is higher in EC50: less than 100 nM for the first, greater than 1000 nM for the second.

`COc1cccc([C@H]2OC(=O)N[C@@H]2c2cccc(C#Cc3ccnnc3)c2)c1` [Example 200] and `COc1cccc([C@H]2OC(=O)N[C@@H]2c2cccc(C#Cc3ccccc3C#N)c2)c1` [Example 90, 2-((3-((4R,5R)-5-(3-Methoxyphenyl)-2-oxooxazolidin-4-yl)phenyl)ethynyl)benzonitrile] cannot be ordered by EC50: greater than 1000 nM for the first, greater than 1000 nM for the second.

First: O=C1N[C@H](c2cncc(C#Cc3cncnc3)c2)[C@@H](c2cc(F)ccc2F)O1 [Example 395, (4R,5R)-5-(2,5-difluorophenyl)-4-(5-(pyrimidin-5-ylethynyl)pyridin-3-yl)oxazolidin-2-one]
Second: O=C1N[C@H](c2cncc(C#Cc3ccnnc3)c2)[C@@H](c2cc(F)ccc2F)O1 [Example 393, (4R,5R)-5-(2,5-difluorophenyl)-4-(5-(pyridazin-4-ylethynyl)pyridin-3-yl)oxazolidin-2-one]
The EC50 of the first is lower: 100 to 1000 nM for the first, greater than 1000 nM for the second. The first is the more potent here.

Going from `O=C1N[C@@H](c2cncc(C#Cc3ccccc3)c2)[C@H](c2cccc(Cl)c2Cl)O1` (single isomer, unassigned) [Example 329] to `O=C1N[C@H](c2cncc(C#Cc3ccccc3)c2)[C@@H](c2cccc(Cl)c2Cl)O1` (single isomer, unassigned) [Example 330], the EC50 falls from greater than 1000 nM to less than 100 nM. The second is the more potent here.

`O=C1N[C@H](c2ccnc(C#Cc3ccccc3)c2)[C@@H](c2cccnc2)O1` [Example 254] and `COc1ccccc1[C@H]1OC(=O)N[C@@H]1c1cncc(C#Cc2ccccc2)c1` (single isomer, unassigned) [Example 334] cannot be ordered by EC50: greater than 1000 nM for the first, greater than 3000 nM for the second.

`C[C@@]1(c2cc(F)ccc2F)OC(=O)N[C@@H]1c1cncc(C#Cc2ccccc2)c1` [Example 290] and `O=C1N[C@H](c2cncc(C#Cc3ccccc3)c2)[C@H](c2cc(Cl)ccc2Cl)O1` (single isomer, unassigned) [Example 327] cannot be ordered by EC50: greater than 1000 nM for the first, greater than 1000 nM for the second.

`O=C1N[C@H](c2cncc(C#Cc3ccccc3)c2)[C@@H](c2cc(F)cc(F)c2F)O1` [Example 293] and `O=C1N[C@H](c2cncc(C#Cc3ccccc3)c2)[C@H](c2cccc(Cl)c2Cl)O1` (single isomer, unassigned) [Example 331] cannot be ordered by EC50: greater than 1000 nM for the first, greater than 1000 nM for the second.

`COc1cccc([C@@H]2OC(=O)N[C@H]2c2cccc(C#Cc3ccccc3C(F)(F)F)c2)c1` [Example 126, (4S,5S)-5-(3-methoxyphenyl)-4-(3-((2-(trifluoromethyl)phenyl)ethynyl)phenyl)oxazolidin-2-one] and `O=C1N[C@@H](c2cncc(C#Cc3cccnc3)c2)[C@H](c2ccc(F)cc2)O1` (single isomer, unassigned) [Example 42] cannot be ordered by EC50: greater than 30000 nM for the first, greater than 1000 nM for the second.

For `COc1cccc([C@H]2OC(=O)N[C@@H]2c2cccc(C#Cc3ccc(OC)nc3)c2)c1` [Example 71, (4R,5R)-5-(3-Methoxyphenyl)-4-(3-((6-methoxypyridin-3-yl)ethynyl)phenyl)oxazolidin-2-one], the EC50 was 100 to 1000 nM and 325 nM.
For `O=C1N[C@H](c2cc(C#Cc3ccc(Cl)cc3)ccn2)[C@@H](c2ccc(F)cc2)O1` (single isomer, unassigned) [Example 349], the EC50 was 100 to 1000 nM and 305 nM.
With `O=C1N[C@H](c2cc(C#Cc3ccccc3)ccn2)[C@@H](c2ccc(F)cc2)O1` (single isomer, unassigned) [Example 297] the EC50 was < 100 nM and 4.7 nM.
In the case of `O=C1N[C@H](c2cccc(C#Cc3ccccc3)n2)[C@@H](c2ccc(F)cc2)O1` (single isomer, unassigned) [Example 135], the EC50 is reported as < 100 nM and 8.5 nM.
With `O=C1N[C@H](c2cncc(C#Cc3ccccc3)c2)[C@@H](c2ccc(F)c(F)c2F)O1` [Example 294] the EC50 was < 100 nM and 2.7 nM.
